Laboratory results from US7932262B2 (Novartis AG, priority 2006, dated 2011).
Like-named read-outs stand apart in the source and are kept apart here.

Legend:
[1] = tested on: A2780 cells; test: Cell Proliferation Assay (Cell Titer Glo), A2780; type: cell-based; settings: Homo sapiens, read-out: CPEC50 A2780
In short: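 Following a 3-day compound exposure (37° C., 5% CO2) of A2780 or PC3MM cells plated at 1000 per well, viability was measured by Cell Titer Glo luminescence in fresh medium, read 10 min after reagent addition.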

[2] = biological target: T1, PDK1 kinase (Homo sapiens, UniProt O15530); test: PDK1 Kinase Alpha Screen Assay; type: biochemical
T1 sequence (O15530 1-556): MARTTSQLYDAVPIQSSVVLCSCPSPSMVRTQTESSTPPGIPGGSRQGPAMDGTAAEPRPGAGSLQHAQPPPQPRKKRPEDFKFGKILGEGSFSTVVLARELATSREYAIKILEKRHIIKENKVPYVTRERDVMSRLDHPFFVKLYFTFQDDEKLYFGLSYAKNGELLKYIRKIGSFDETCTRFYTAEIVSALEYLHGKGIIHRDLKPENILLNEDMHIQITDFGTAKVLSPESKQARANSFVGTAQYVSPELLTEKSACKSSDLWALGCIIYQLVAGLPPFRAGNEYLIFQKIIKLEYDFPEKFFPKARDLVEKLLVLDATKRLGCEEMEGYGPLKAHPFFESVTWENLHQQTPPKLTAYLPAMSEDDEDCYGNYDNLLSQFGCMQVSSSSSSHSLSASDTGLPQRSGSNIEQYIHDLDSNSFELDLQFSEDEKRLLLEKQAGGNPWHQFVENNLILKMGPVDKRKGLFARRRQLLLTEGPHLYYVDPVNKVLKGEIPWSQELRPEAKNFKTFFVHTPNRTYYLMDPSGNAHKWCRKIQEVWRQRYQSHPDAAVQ
In short: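 Detection used AlphaScreen: streptavidin donor and protein A acceptor beads (25 μg/ml each) bridged by a phospho-(Ser/Thr) PKA substrate antibody binding phosphorylated peptide. Reaction: biotin-PDK1-4 peptide (50 nM), ATP (10 uM), PDK1 in pH 7.5 Tris/MgCl2/DTT buffer, 3-18 hours, EDTA-stopped.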

[3] = tested on: PC3MM cells; test: Cell Proliferation Assay (Cell Titer Glo), PC3MM; type: cell-based; settings: read-out: CPEC50 PC3MM
Description: IV. Cell Proliferation Assay Protocol:
A2780, PC-3, or PC3MM cells were seeded at 1000 cells/well in 100 μL/well (10.000 cells/mL) growth media in 96-well plates. Cells were allowed to adhere to the bottom of plates for 3-5 hours in a 37° C. 5% CO2 incubator. Compounds were dissolved in DMSO and then transferred to the cell plates. The cells were incubated with the compounds for 3 days in a 37° C. 5% CO2 incubator. The growth medium containing the compounds was then removed from the cells and fresh medium was added, followed by 100 μL of Cell Titer Glo assay reagent (Promega). This mixture was shaken for 1 minute and then incubated without shaking for 10 minutes. Activity determinations for the compounds were made by detection on a Trilux Instrument.

[4] = Cell Proliferation Assay, A2780
[5] = PDK1 Kinase Alpha Screen Assay, read-out: PDK1 IC50
[6] = Cell Proliferation Assay, PC3MM
[7] = Cell Proliferation Assay, PC3MM cells
[8] = cell proliferation, A2780 cells
[9] = cell proliferation, PC3MM cells

| IC50 [2, 5] | EC50 [3, 6] | SMILES | also measured |
| --- | --- | --- | --- |
| < 5 µM | < 5 µM | O=C(c1cc(Nc2ncc3cc(Br)cc(OC4CCNCC4)c3n2)cc(N2CCOCC2)c1)N1CCOCC1 [Compound 670, (3-(6-bromo-8-(piperidin-4-yloxy)quinazolin-2-ylamino)-5-morpholinophenyl)(morpholino) methanone] | – |
| < 5 µM | 5 to 10 µM | NC(=O)c1cc(Nc2ncc3cc(-c4cn[nH]c4)c(OC4CCNCC4)cc3n2)cc(N2CCOCC2)c1 [Compound 674, 3-morpholino-5-(7-(piperidin-4-yloxy)-6-(1H-pyrazol-4-yl)quinazolin-2-ylamino)benzamide] | – |
| < 5 µM | < 5 µM | CN1CCC(Oc2cc3nc(Nc4cc(C(N)=O)cc(N5CCOCC5)c4)ncc3cc2-c2nccs2)CC1 [Compound 678, 3-(7-(1-methylpiperidin-4-yloxy)-6-(thiazol-2-yl)quinazolin-2-ylamino)-5-morpholinobenzamide] | – |
| < 5 µM | 5 to 10 µM | CN1CCC(Oc2cc3nc(Nc4ccc5nc(C(F)(F)F)[nH]c5c4)ncc3cc2-c2nccs2)CC1 [Compound 681, 7-(1-methylpiperidin-4-yloxy)-6-(thiazol-2-yl)-N-(2-(trifluoromethyl)-1H-benzo[d]imidazol-6-yl)quinazolin-2-amine] | – |
| < 5 µM | < 5 µM | COc1cc(Nc2ncc3cc(-c4nccs4)c(OC4CCNCC4)cc3n2)cc(-n2nnnc2C)c1 [Compound 682, N-(3-methoxy-5 (5-methyl-1H-tetrazol-1-yl)phenyl)-7-(piperidin-4-yloxy)-6-(thiazol-2-yl)quinazolin-2-amine] | – |
| < 5 µM | < 5 µM | CC(=O)N1CCC(Oc2cc3nc(Nc4ccc(N5CCOCC5)cc4)ncc3cc2-c2nccs2)CC1 [Compound 690, 1-(4-(2-(4-morpholinophenylamino)-6-(thiazol-2-yl)quinazolin-7-yloxy)piperidin-1-yl)ethanone] | – |
| < 5 µM | – | COC(=O)Nc1cc(CN2CCOCC2)cc(Nc2ncc3ccc(-c4cnn(CCC(C)C)c4)c(OC)c3n2)c1 [Compound 716, methyl 3-(7-(1-isopentyl-1H-pyrazol-4-yl)-8-methoxyquinazolin-2-ylamino)-5-(morpholinomethyl)phenyl carbamate] | EC50 [3, 7]: < 5 µM |
| < 5 µM | – | NC(=O)c1ccc(Nc2ncc3cccc(OC4CCNCC4)c3n2)cc1 [Compound 717, 4-(8-(piperidin-4-yloxy)quinazolin-2-ylamino)benzamide] | EC50 [1, 8]: < 5 µM; EC50 [3, 9]: < 5 µM |
| < 5 µM | – | NC(=O)c1ccccc1-c1ccc2cnc(Nc3ccc(S(N)(=O)=O)cc3)nc2c1 [Compound 784, 2-(2-(4-sulfamoylphenylamino)quinazolin-7-yl)benzamide] | EC50 [3, 9]: < 5 µM |
| 10 to 25 µM | – | CS(=O)(=O)Nc1cccc(-c2ccc3cnc(Nc4ccc(S(N)(=O)=O)cc4)nc3c2)c1 [Compound 788, 4-(7-(3-(methylsulfonamido)phenyl)quinazolin-2-ylamino)benzenesulfonamide] | EC50 [3, 9]: 10 to 25 µM |

Further lines, the compound ahead of its results:

| SMILES | IC50 [2, 5] | EC50 [3, 6] | also measured |
| --- | --- | --- | --- |
| c1cc(N2CCOCC2)ccc1Nc1ncc2cc(-c3cnoc3)c(OC3CCNCC3)cc2n1 [Compound 652, 6-(isoxazol-4-yl)-N-(4-morpholinophenyl)-7-(piperidin-4-yloxy)quinazolin-2-amine] | < 5 µM | < 5 µM | EC50 [1, 4]: < 5 µM |
| CN1CCC(Oc2cc3nc(Nc4ccc(N5CCOCC5)cc4)ncc3cc2-c2nccs2)CC1 [Compound 653, 7-(1-methylpiperidin-4-yloxy)-N-(4-morpholinophenyl)-6-(thiazol-2-yl)quinazolin-2-amine] | < 5 µM | < 5 µM | EC50 [1, 4]: < 5 µM |
| NC(=O)c1cc(Nc2ncc3cc(Br)cc(OC4CCNCC4)c3n2)cc(N2CCOCC2)c1 [Compound 669, 3-(6-bromo-8-(piperidin-4-yloxy)quinazolin-2-ylamino)-5-morpholinobenzamide] | < 5 µM | 5 to 10 µM | – |
| Cn1cc(-c2cc(Nc3ncc4cc(Br)cc(OC5CCNCC5)c4n3)cc(C(N)=O)c2)cn1 [Compound 671, 3-(6-bromo-8-(piperidin-4-yloxy)quinazolin-2-ylamino)-5-(1-methyl-1H-pyrazol-4-yl)benzamide] | < 5 µM | < 5 µM | – |
| NC(=O)c1cc(Nc2ncc3cc(-c4nccs4)cc(OC4CCNCC4)c3n2)cc(N2CCOCC2)c1 [Compound 672, 3-morpholino-5-(8-(piperidin-4-yloxy)-6-(thiazol-2-yl)quinazolin-2-ylamino)benzamide] | < 5 µM | 5 to 10 µM | – |
| Cn1cc(-c2cc(Nc3ncc4cc(-c5nccs5)cc(OC5CCNCC5)c4n3)cc(C(N)=O)c2)cn1 [Compound 673, 3-(1-methyl-1H-pyrazol-4-yl)-5-(8-(piperidin-4-yloxy)-6-(thiazol-2-yl)quinazolin-2-ylamino)benzamide] | < 5 µM | 5 to 10 µM | – |
| NC(=O)c1cc(Nc2ncc3cc(-c4nccs4)c(OC4CCNCC4)cc3n2)cc(N2CCOCC2)c1 [Compound 675, 3-morpholino-5-(7-(piperidin-4-yloxy)-6-(thiazol-2-yl)quinazolin-2-ylamino)benzamide] | < 5 µM | 5 to 10 µM | – |
| COC(=O)Nc1cc(Nc2ncc3cc(-c4cn[nH]c4)c(OC4CCN(C)CC4)cc3n2)cc(-c2cn[nH]c2)c1 [Compound 676, methyl 3-(7-(1-methylpiperidin-4-yloxy)-6-(1H-pyrazol-4-yl)quinazolin-2-ylamino)-5-(1H-pyrazol-4-yl)phenylcarbamate] | < 5 µM | < 5 µM | – |
| CN1CCC(Oc2cc3nc(Nc4cc(C(N)=O)cc(N5CCOCC5)c4)ncc3cc2-c2cn[nH]c2)CC1 [Compound 677, 3-(7-(1-methylpiperidin-4-yloxy)-6-(1H-pyrazol-4-yl)quinazolin-2-ylamino)-5-morpholinobenzamide] | < 5 µM | 5 to 10 µM | – |
| C#Cc1cc2cnc(Nc3cc(C(N)=O)cc(N4CCOCC4)c3)nc2cc1OC1CCNCC1 [Compound 679, 3-(6-ethynyl-7-(piperidin-4-yloxy)quinazolin-2-ylamino)-5-morpholinobenzamide] | < 5 µM | 5 to 10 µM | – |
| NC(=O)c1cc(Nc2ncc3cc(-c4cnoc4)c(OC4CCNCC4)cc3n2)cc(N2CCOCC2)c1 [Compound 680, 3-(6-(isoxazol-4-yl)-7-(piperidin-4-yloxy)quinazolin-2-ylamino)-5-morpholinobenzamide] | < 5 µM | 5 to 10 µM | – |
| COc1c(-c2cnn(CC(C)C)c2)ccc2cnc(Nc3cc(CN4CCOCC4)cc(NC(C)=O)c3)nc12 [Compound 715, N-(3-(7-(1-isobutyl-1H-pyrazol-4-yl)-8-methoxyquinazolin-2-ylamino)-5-(morpholinomethyl)phenyl)acetamide] | < 5 µM | – | EC50 [3, 7]: < 5 µM |
| NS(=O)(=O)c1ccc(Nc2ncc3cccc(O[C@H]4CCNC4)c3n2)cc1 [Compound 721, (S)-4-(8-(pyrrolidin-3-yloxy)quinazolin-2-ylamino)benzenesulfonamide] | < 5 µM | – | EC50 [1, 8]: < 5 µM; EC50 [3, 9]: < 5 µM |
| NS(=O)(=O)c1ccc(Nc2ncc3cccc(OC4CN5CCC4CC5)c3n2)cc1 (centres unmarked) [Compound 722, 4-(8-(quinuclidin-3-yloxy)quinazolin-2-ylamino)benzenesulfonamide] | < 5 µM | – | EC50 [1, 8]: < 5 µM; EC50 [3, 9]: < 5 µM |
| CC(=O)Nc1cccc(-c2ccc3cnc(Nc4ccc(S(N)(=O)=O)cc4)nc3c2)c1 [Compound 785, N-(3-(2-(4-sulfamoylphenylamino)quinazolin-7-yl)phenyl)acetamide] | 5 to 10 µM | – | EC50 [3, 9]: 5 to 10 µM |
| CS(=O)(=O)c1cccc(-c2ccc3cnc(Nc4ccc(S(N)(=O)=O)cc4)nc3c2)c1 [Compound 787, 4-(7-(3-(methylsulfonyl)phenyl)quinazolin-2-ylamino)benzenesulfonamide] | < 5 µM | – | EC50 [3, 9]: < 5 µM |
| COC(=O)Nc1cc(CN2CCOCC2)cc(Nc2ncc3ccc(-c4cnn(CCC(C)C)c4)c(OC)c3n2)c1 [Compound 1042, methyl 3-(7-(1-isopentyl-1H-pyrazol-4-yl)-8-methoxyquinazolin-2-ylamino)-5-(morpholinomethyl)phenylcarbamate] | – | – | IC50 ([2]; head of the second part of Table 4: BV11261, read-out: PDK1 BV11261): < 5 µM; EC50 ([3]; PC3MM cells): < 5 µM |
